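Five concentrations, 48 hours, 96-well plates. GI50 marks 50% less growth. TGI is the concentration that stops growth completely.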
What was measured:
Experiment in all cases: NCI-60 cell line screen, 48 h
[1] = tested on: A498 renal
[2] = tested on: A549 NSCLC
[3] = tested on: ACHN renal
[4] = tested on: CAKI-1 renal
[5] = tested on: CCRF-CEM leukemia
[6] = tested on: COLO 205 colon
[7] = tested on: DU-145 prostate
[8] = tested on: EKVX NSCLC
[9] = tested on: HCC-2998 colon
[10] = tested on: HCT-116 colon
[11] = tested on: HCT-15 colon
[12] = tested on: HL-60(TB) leukemia
[13] = tested on: HOP-62 NSCLC
[14] = tested on: HOP-92 NSCLC
[15] = tested on: HS 578T breast
[16] = tested on: HT29 colon
[17] = tested on: IGROV1 ovarian
[18] = tested on: K-562 leukemia
[19] = tested on: KM12 colon
[20] = tested on: LOX IMVI melanoma
[21] = tested on: M14 melanoma
[22] = tested on: MDA-MB-231 breast
[23] = tested on: MDA-MB-435
[24] = tested on: MOLT-4 leukemia
[25] = tested on: NCI-H226 lung
[26] = tested on: NCI-H23 lung
[27] = tested on: NCI-H460 lung
[28] = tested on: NCI/ADR-RES ovarian
[29] = tested on: OVCAR-3 ovarian
[30] = tested on: OVCAR-4 ovarian
[31] = tested on: OVCAR-5 ovarian
[32] = tested on: PC-3 prostate
[33] = tested on: RPMI-8226 leukemia
[34] = tested on: RXF 393 renal
[35] = tested on: SF-268 CNS
[36] = tested on: SF-295 CNS
[37] = tested on: SF-539 CNS
[38] = tested on: SK-MEL-2 melanoma
[39] = tested on: SK-MEL-28 melanoma
[40] = tested on: SK-MEL-5 melanoma
[41] = tested on: SK-OV-3 ovarian
[42] = tested on: SN12C renal
[43] = tested on: SNB-19 CNS
[44] = tested on: SNB-75 CNS
[45] = tested on: SR leukemia
[46] = tested on: SW-620 colon
[47] = tested on: T-47D breast
[48] = tested on: TK-10 renal
[49] = tested on: U251 CNS
[50] = tested on: UACC-257 melanoma
[51] = tested on: UACC-62 melanoma
[52] = tested on: UO-31 renal
[53] = tested on: NCI-H522 lung
[54] = tested on: 786-0 renal
[55] = tested on: BT-549 breast
[56] = tested on: MALME-3M melanoma
[57] = tested on: MCF7 breast
[58] = tested on: OVCAR-8 ovarian

SMILES: CCCCCCCCCCCCCC[n+]1ccc(C)cc1
- GI50 [1]: 2930 nM
- TGI [1]: 12.6 µM
- GI50 [2]: 1.53 µM
- TGI [2]: 2.94 µM
- GI50 [3]: 3.23 µM
- TGI [3]: 10.9 µM
- GI50 [4]: 933 nM
- TGI [4]: 2.66 µM
- GI50 [5]: 818 nM
- TGI [5]: 5.11 µM
- GI50 [6]: 1220 nM
- TGI [6]: 2670 nM
- GI50 [7]: 608 nM
- TGI [7]: 1830 nM
- GI50 [8]: 296 nM
- TGI [8]: 1420 nM
- GI50 [9]: 708 nM
- TGI [9]: 2040 nM
- GI50 [10]: 403 nM
- TGI [10]: 2010 nM
- GI50 [11]: 4.01 µM
- TGI [11]: 22.4 µM
- GI50 [12]: 338 nM
- TGI [12]: 1190 nM
- GI50 [13]: 1.27 µM
- TGI [13]: 2.61 µM
- GI50 [14]: 577 nM
- TGI [14]: 3.3 µM
- GI50 [15]: 2.39 µM
- TGI [15]: 8.8 µM
- GI50 [16]: 356 nM
- TGI [16]: 1820 nM
- GI50 [17]: 0.349 µM
- TGI [17]: 953 nM
- GI50 [18]: 309 nM
- TGI [18]: 3.73 µM
- GI50 [19]: 281 nM
- TGI [19]: 802 nM
- GI50 [20]: 350 nM
- TGI [20]: 1360 nM
- GI50 [21]: 345 nM
- TGI [21]: 1250 nM
- GI50 [22]: 1340 nM
- TGI [22]: 3.7 µM
- GI50 [23]: 638 nM
- TGI [23]: 2160 nM
- GI50 [24]: 689 nM
- TGI [24]: 2650 nM
- GI50 [25]: 915 nM
- TGI [25]: 5.59 µM
- GI50 [26]: 504 nM
- TGI [26]: 2510 nM
- GI50 [27]: 994 nM
- TGI [27]: 2230 nM
- GI50 [28]: 11.8 µM
- TGI [28]: 37 µM
- GI50 [29]: 351 nM
- TGI [29]: 1280 nM
- GI50 [30]: 523 nM
- TGI [30]: 2710 nM
- GI50 [31]: 1140 nM
- TGI [31]: 5.18 µM
- GI50 [32]: 455 nM
- TGI [32]: 2630 nM
- GI50 [33]: 426 nM
- TGI [33]: 2370 nM
- GI50 [34]: 1.05 µM
- TGI [34]: 2.35 µM
- GI50 [35]: 447 nM
- TGI [35]: 1700 nM
- GI50 [36]: 3.25 µM
- TGI [36]: 17.8 µM
- GI50 [37]: 1770 nM
- TGI [37]: 4.72 µM
- GI50 [38]: 1330 nM
- TGI [38]: 2.83 µM
- GI50 [39]: 1440 nM
- TGI [39]: 3.09 µM
- GI50 [40]: 548 nM
- TGI [40]: 1810 nM
- GI50 [41]: 1800 nM
- TGI [41]: 5.56 µM
- GI50 [42]: 1560 nM
- TGI [42]: 4.11 µM
- GI50 [43]: 1460 nM
- TGI [43]: 4.02 µM
- GI50 [44]: 806 nM
- TGI [44]: 2.37 µM
- GI50 [45]: 581 nM
- TGI [45]: 2.67 µM
- GI50 [46]: 945 nM
- TGI [46]: 3.88 µM
- GI50 [47]: 831 nM
- TGI [47]: 10.6 µM
- GI50 [48]: 0.627 µM
- TGI [48]: 2.11 µM
- GI50 [49]: 437 nM
- TGI [49]: 1.65 µM
- GI50 [50]: 763 nM
- TGI [50]: 2480 nM
- GI50 [51]: 1080 nM
- TGI [51]: 2570 nM
- GI50 [52]: 1380 nM
- TGI [52]: 3.79 µM

SMILES: S=c1sc2c(Cl)nc(-c3cccnc3)nc2n1-c1ccccc1
- GI50 [1]: > 100000 nM
- TGI [1]: > 100 µM
- GI50 [2]: > 100 µM
- TGI [2]: > 100 µM
- GI50 [4]: 1670 nM
- TGI [4]: 3.14 µM
- GI50 [13]: 3.27 µM
- TGI [13]: > 100 µM
- GI50 [14]: 3180 nM
- TGI [14]: 30.5 µM
- GI50 [15]: 4.09 µM
- TGI [15]: > 100 µM
- GI50 [53]: 1540 nM
- TGI [53]: 3.1 µM
- GI50 [28]: 3.05 µM
- TGI [28]: > 100 µM
- GI50 [31]: > 100000 nM
- TGI [31]: > 100 µM
- GI50 [36]: > 100 µM
- TGI [36]: > 100 µM
- GI50 [41]: > 100000 nM
- TGI [41]: > 100 µM
- GI50 [45]: 556 nM
- TGI [45]: 4.68 µM
- GI50 [48]: > 100 µM
- TGI [48]: > 100 µM
- GI50 [52]: 1640 nM
- TGI [52]: 3.33 µM

SMILES: COc1ccc(-c2csc(NC(=O)CN3CCN(c4cc5c(cc4F)c(=O)c(C(=O)O)cn5C4CC4)CC3)n2)cc1
- GI50 [54]: 3.6 µM
- TGI [54]: 31.1 µM
- GI50 [2]: 3.47 µM
- TGI [2]: > 100 µM
- GI50 [3]: 3.25 µM
- TGI [3]: > 100 µM
- GI50 [55]: 3.03 µM
- TGI [55]: > 100 µM
- GI50 [4]: 3570 nM
- TGI [4]: > 100 µM
- GI50 [5]: 3590 nM
- TGI [5]: > 100 µM
- GI50 [7]: 3350 nM
- TGI [7]: > 100000 nM
- GI50 [8]: 4390 nM
- TGI [8]: > 100000 nM
- GI50 [9]: 4800 nM
- TGI [9]: > 100000 nM
- GI50 [10]: 3100 nM
- TGI [10]: > 100000 nM
- GI50 [11]: 3.23 µM
- TGI [11]: > 100 µM
- GI50 [13]: 3.59 µM
- TGI [13]: 26.1 µM
- GI50 [14]: 2820 nM
- TGI [14]: 7.17 µM
- GI50 [15]: 9.82 µM
- TGI [15]: > 100 µM
- GI50 [16]: 3490 nM
- TGI [16]: > 100000 nM
- GI50 [17]: 7 µM
- TGI [17]: > 100000 nM
- GI50 [19]: 3370 nM
- TGI [19]: > 100000 nM
- GI50 [21]: 4100 nM
- TGI [21]: > 100000 nM
- GI50 [56]: 2370 nM
- TGI [56]: 7.49 µM
- GI50 [57]: 2840 nM
- TGI [57]: > 100 µM
- GI50 [23]: 3390 nM
- TGI [23]: > 100000 nM
- GI50 [25]: 4960 nM
- TGI [25]: > 100 µM
- GI50 [26]: 2900 nM
- TGI [26]: > 100000 nM
- GI50 [27]: 3180 nM
- TGI [27]: > 100000 nM
- GI50 [53]: 3480 nM
- TGI [53]: > 100 µM
- GI50 [29]: 3860 nM
- TGI [29]: > 100000 nM
- GI50 [58]: 3.2 µM
- TGI [58]: > 100 µM
- GI50 [32]: 3820 nM
- TGI [32]: > 100000 nM
- GI50 [33]: 2690 nM
- TGI [33]: > 100000 nM
- GI50 [34]: 4.97 µM
- TGI [34]: 27.7 µM
- GI50 [35]: 4280 nM
- TGI [35]: > 100000 nM
- GI50 [36]: 2.73 µM
- TGI [36]: 15.9 µM
- GI50 [37]: 3610 nM
- TGI [37]: > 100 µM
- GI50 [38]: 2580 nM
- TGI [38]: 8.28 µM
- GI50 [39]: 3720 nM
- TGI [39]: > 100 µM
- GI50 [41]: 2860 nM
- TGI [41]: 8.32 µM
- GI50 [42]: 3370 nM
- TGI [42]: > 100 µM
- GI50 [43]: 4100 nM
- TGI [43]: > 100 µM
- GI50 [44]: 3310 nM
- TGI [44]: 34.2 µM
- GI50 [45]: 2960 nM
- TGI [45]: > 100 µM
- GI50 [46]: 3900 nM
- TGI [46]: > 100 µM
- GI50 [48]: 4.62 µM
- TGI [48]: 22.9 µM
- GI50 [49]: 3030 nM
- TGI [49]: 13.9 µM
- GI50 [51]: 4180 nM
- TGI [51]: > 100000 nM
- GI50 [52]: 3370 nM
- TGI [52]: > 100 µM

Source: PubChem BioAssay (NCI)
